Assay results: US9084770B2, “Modulation of insulin like growth factor I receptor expression in cancer” (Antisense Therapeutics, Ltd., priority 2008, dated 2015)

How the values were obtained:
LNCaP tumors = experiment: LNCaP xenograft after castration, tumor volume and serum PSA; format: in vivo, mice; settings: 15 mg/kg i.p. once daily for 7 days and 3 times per week thereafter; vs control oligodeoxynucleotide
Method: One million PC-3 or LNCaP cells were injected subcutaneously in athymic mice. For LNCaP xenografts, when PSA values exceeded 50 ng/ml, mice were castrated and randomly selected for treatment with ATL1101 or control oligodeoxynucleotide (15 mg/kg) injected i.p. once daily for 7 days and 3 times per week thereafter. Blood samples were obtained from the tail vein of the mice once weekly to measure serum PSA by ELISA. For PC-3 xenografts, when tumors reached 100 mm^3, mice were randomly selected and treated with the same protocol as LNCaP.
The effects of IGF-IR antisense oligonucleotide treatment in LNCaP and PC-3 tumors in vivo are show in FIGS. 5A-5C. LNCaP cells were inoculated s.c. and when PSA values exceeded 50 ng/ml, mice were castrated and randomly selected for treatment with ATL1101 or control oligodeoxynucleotide (15 mg/kg) injected i.p. once daily for 7 days and 3 times per week thereafter. Blood samples were obtained from the tail vein of the mice once weekly to measure serum PSA by ELISA. PC-3 cells were inoculated s.c. and when tumors reached 100 mm^3, mice were randomly selected for treatment with the same protocol as LNCaP. Each point represents the mean tumor volume in each group containing 10 mice; bars, SE. * differs from control oligodeoxynucleotide treatment group (p<0.05) by Student's t test.

IGF-IRβ, p-AKT, pERK1/2 = experiment: PC3 xenograft tumor proteins, western blotting; format: in vivo; settings: after 7 days of treatment; two of three mice
Method: Total PC3 xenograft tumor proteins were extracted after the treatment of IGFI-R antisense oligonucleotide or control oligodeoxynucleotide for 7 days and IGF-IRβ, p-AKT, pERK1/2, and vinculin protein levels were analyzed by western blotting. Tumor growth ratio of corresponding tumors are also shown (FIG. 5E).

[1] = system: IGF-IRβ, p-AKT, p-ERK1/2, cleaved PARP; experiment: Intracellular signaling in LNCaP and PC3 cells, immunoblot; format: cell-based, human; settings: 100 nM
Method: The suppression of intracellular signaling in IGF-IR antisense oligonucleotide-treated LNCaP (FIG. 3A) and PC3 (FIG. 3B) in vitro is shown in FIGS. 3A-3B. LNCaP or PC3 cells were transfected with 100 nM ATL1101 or control oligodeoxynucleotide (ISIS 306064) for two days. Cells were then cultured in FBS media for one day and in serum-free media for one day. Whole cell lysates (30 μg) were subjected to SDS-PAGE and immunoblotted to assess IGF-IRβ, p-AKT, total AKT, p-ERK1/2, total ERK1/2, cleaved PARP, and vinculin protein levels. Oligo, oligofectamine treated cells only.

Ptx-R PC3 cells = experiment: Ptx-R PC3 viable cells after transfection with or without Paclitaxel; format: cell-based, human
Method: The number of viable PC3 and PtxR PC3 cells was determined 72 hours after the second transfection.
[…] The number of viable cells remaining was determined 72 hours after the second transfection treatment. ATL1101 treatment enhances the Ptx-R sensitivity to Paclitaxel under standard culture conditions. For example, there was approximately 45% cell viability with 100 nM Paclitaxel and 25 nM control oligodeoxynucleotide whereas, only 25 nM Paclitaxel is needed in the presence of 25 nM ATL1101 to produce the same reduction in cell viability.

PC3 tumors = experiment: PC-3 xenograft with Paclitaxel, mean tumor volume; format: in vivo, mice; settings: for mean tumor size: 15 mg/kg i.p. oligonucleotide plus Paclitaxel; for mean tumor size, % of control: plus Paclitaxel
Description: In vivo treatments in a PC-3 xenograft model were done substantially as described by Zellweger et al., 2001. PC3 cells (2×10^6 cells) were xenografted by subcutaneous injection into recipient 6-8 week-old athymic nude (nu/nu) mice. When tumors reached 200 mm^3, mice were randomly assigned to one of two arms for treatment with 2′-MOE-modified IGF-IR antisense oligonucleotide (ATL1101) plus Paclitaxel, or mismatch control oligodeoxynucleotide ISIS 306064 plus Paclitaxel. Each experimental group consisted of 10 mice. After randomization, 15 mg/kg of ATL1101 antisense oligonucleotide or mismatch control oligonucleotide were injected intraperitoneal (i.p.) into each mouse once daily for the first 5 days and 3 times a week (every other day) thereafter for 7 weeks. On days 7, 9, 11, and on days 21, 23, and 25, 0.5 mg of polymeric micellar Paclitaxel was administered once daily by i.v. injection. Mean Tumor volume was measured once weekly for 8 weeks and calculated by the formula length×width×depth×0.5236.
In PC3 mice, after 5 weeks of treatment, mean tumor size in mice treated with Paclitaxel and mismatch control oligodeoxynucleotide was 326+/−40.9 mm^3 compared with 175+/−20.1 mm^3 in mice treated with Paclitaxel and ATL1101, or 53.7% of control (p<0.01). After 8 weeks of treatment, mean tumor size in mice treated with Paclitaxel and mismatch control oligodeoxynucleotide was 1417+/−222 mm^3 compared with 507+/−79.3 mm^3 in mice treated with Paclitaxel and ATL1101, or 35.8% of control (p<0.01).

Substance: cgaaggaaacaatactccga (CGAAGGAAACAATACTCCGA; 2'-MOE modified, pattern not given here) [ISIS 175317, 2′-MOE-modified IGF-IR antisense oligonucleotide, also known as ATL1101]
- PSA rise rates after castration (LNCaP tumors): significantly delayed
- tumor growth after castration (LNCaP tumors): significantly delayed
- IGF-IR expression in tumor (IGF-IRβ, p-AKT, pERK1/2): decreased
- activation of AKT and ERK1/2 in tumor (IGF-IRβ, p-AKT, pERK1/2): suppressed
- IGF-IR expression [1]: undetectable
- activation of AKT and ERK1/2 [1]: suppressed
- cleaved PARP production [1]: increased
- Paclitaxel concentration needed to produce the same reduction in cell viability (approximately 45% viability) (Ptx-R PC3 cells; in the presence of 25 nM ATL1101): 25 nM
- sensitivity of viable cell number to ATL1101 (Ptx-R PC3 cells; up to 250 nM, 72 hours after second transfection, standard culture conditions): retain ATL1101 sensitivity
- mean tumor size (PC3 tumors; after 5 weeks of treatment): 175+/−20.1 mm^3
- mean tumor size, % of control (PC3 tumors; after 5 weeks of treatment): 53.7%
- mean tumor size (PC3 tumors; after 8 weeks of treatment): 507+/−79.3 mm^3
- mean tumor size, % of control (PC3 tumors; after 8 weeks of treatment): 35.8%
